Measured values as given in PubChem BioAssay (NCI).
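Each compound was tested at five concentrations against cells in 96-well plates for 48 hours. GI50: concentration for 50% inhibition of growth. TGI marks complete inhibition of growth.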

Key:
Assay in all cases: DTP human tumour cell line panel, 48 h
HCT-116 colon = test system: HCT-116 colon
SNB-19 CNS = test system: SNB-19 CNS
NCI/ADR-RES ovarian = test system: NCI/ADR-RES ovarian
IGROV1 ovarian = test system: IGROV1 ovarian
SK-MEL-2 melanoma = test system: SK-MEL-2 melanoma
MCF7 breast = test system: MCF7 breast
NCI-H460 lung = test system: NCI-H460 lung
SK-MEL-28 melanoma = test system: SK-MEL-28 melanoma
T-47D breast = test system: T-47D breast
MOLT-4 leukemia = test system: MOLT-4 leukemia
NCI-H226 lung = test system: NCI-H226 lung
PC-3 prostate = test system: PC-3 prostate
HT29 colon = test system: HT29 colon
SR leukemia = test system: SR leukemia
SW-620 colon = test system: SW-620 colon
OVCAR-3 ovarian = test system: OVCAR-3 ovarian
MDA-MB-231 breast = test system: MDA-MB-231 breast
SF-295 CNS = test system: SF-295 CNS
NCI-H522 lung = test system: NCI-H522 lung
UACC-62 melanoma = test system: UACC-62 melanoma
OVCAR-4 ovarian = test system: OVCAR-4 ovarian
SNB-75 CNS = test system: SNB-75 CNS
UACC-257 melanoma = test system: UACC-257 melanoma
RXF 393 renal = test system: RXF 393 renal
SF-268 CNS = test system: SF-268 CNS
M14 melanoma = test system: M14 melanoma
HS 578T breast = test system: HS 578T breast
SF-539 CNS = test system: SF-539 CNS
HL-60(TB) leukemia = test system: HL-60(TB) leukemia
SK-OV-3 ovarian = test system: SK-OV-3 ovarian
CCRF-CEM leukemia = test system: CCRF-CEM leukemia
RPMI-8226 leukemia = test system: RPMI-8226 leukemia
TK-10 renal = test system: TK-10 renal
SN12C renal = test system: SN12C renal
LOX IMVI melanoma = test system: LOX IMVI melanoma
A498 renal = test system: A498 renal
BT-549 breast = test system: BT-549 breast
UO-31 renal = test system: UO-31 renal
786-0 renal = test system: 786-0 renal
OVCAR-5 ovarian = test system: OVCAR-5 ovarian
SK-MEL-5 melanoma = test system: SK-MEL-5 melanoma
A549 NSCLC = test system: A549 NSCLC
OVCAR-8 ovarian = test system: OVCAR-8 ovarian
K-562 leukemia = test system: K-562 leukemia
MALME-3M melanoma = test system: MALME-3M melanoma
U251 CNS = test system: U251 CNS
NCI-H23 lung = test system: NCI-H23 lung
HCT-15 colon = test system: HCT-15 colon
KM12 colon = test system: KM12 colon
HOP-92 NSCLC = test system: HOP-92 NSCLC
DU-145 prostate = test system: DU-145 prostate
HCC-2998 colon = test system: HCC-2998 colon
COLO 205 colon = test system: COLO 205 colon
CAKI-1 renal = test system: CAKI-1 renal
EKVX NSCLC = test system: EKVX NSCLC
HOP-62 NSCLC = test system: HOP-62 NSCLC
ACHN renal = test system: ACHN renal
MDA-MB-435 = test system: MDA-MB-435

CSc1ccc(/C(=N/N=C(N)N)c2ccc(Cl)cc2)cc1
GI50 (HCT-116 colon): 364 nM | TGI (HCT-116 colon): 1270 nM | GI50 (SNB-19 CNS): 696 nM | TGI (SNB-19 CNS): 14200 nM | GI50 (NCI/ADR-RES ovarian): 748 nM | TGI (NCI/ADR-RES ovarian): 2870 nM | GI50 (IGROV1 ovarian): 860 nM | TGI (IGROV1 ovarian): 5860 nM | GI50 (SK-MEL-2 melanoma): 473 nM | TGI (SK-MEL-2 melanoma): 3840 nM | GI50 (MCF7 breast): 355 nM | TGI (MCF7 breast): 2060 nM | GI50 (NCI-H460 lung): 376 nM | TGI (NCI-H460 lung): 1510 nM | GI50 (SK-MEL-28 melanoma): 957 nM | TGI (SK-MEL-28 melanoma): 2350 nM | GI50 (T-47D breast): 558 nM | TGI (T-47D breast): 4940 nM | GI50 (MOLT-4 leukemia): 422 nM | TGI (MOLT-4 leukemia): 3520 nM | GI50 (NCI-H226 lung): 1180 nM | TGI (NCI-H226 lung): 6400 nM | GI50 (PC-3 prostate): 447 nM | TGI (PC-3 prostate): 5220 nM | GI50 (HT29 colon): 332 nM | TGI (HT29 colon): 1130 nM | GI50 (SR leukemia): 349 nM | TGI (SR leukemia): 2300 nM | GI50 (SW-620 colon): 480 nM | TGI (SW-620 colon): 1960 nM | GI50 (OVCAR-3 ovarian): 500 nM | TGI (OVCAR-3 ovarian): 4130 nM | GI50 (MDA-MB-231 breast): 499 nM | TGI (MDA-MB-231 breast): 3180 nM | GI50 (SF-295 CNS): 368 nM | TGI (SF-295 CNS): 1570 nM | GI50 (NCI-H522 lung): 213 nM | TGI (NCI-H522 lung): 516 nM | GI50 (UACC-62 melanoma): 707 nM | TGI (UACC-62 melanoma): 2420 nM | GI50 (OVCAR-4 ovarian): 1550 nM | TGI (OVCAR-4 ovarian): 13200 nM | GI50 (SNB-75 CNS): 380 nM | TGI (SNB-75 CNS): 4140 nM | GI50 (UACC-257 melanoma): 891 nM | TGI (UACC-257 melanoma): 2520 nM | GI50 (RXF 393 renal): 509 nM | TGI (RXF 393 renal): 2140 nM | GI50 (SF-268 CNS): 1060 nM | TGI (SF-268 CNS): 6630 nM | GI50 (M14 melanoma): 362 nM | TGI (M14 melanoma): 1270 nM | GI50 (HS 578T breast): 1280 nM | TGI (HS 578T breast): 14900 nM | GI50 (SF-539 CNS): 291 nM | TGI (SF-539 CNS): 935 nM | GI50 (HL-60(TB) leukemia): 268 nM | TGI (HL-60(TB) leukemia): 784 nM | GI50 (SK-OV-3 ovarian): 593 nM | TGI (SK-OV-3 ovarian): 14300 nM | GI50 (CCRF-CEM leukemia): 375 nM | TGI (CCRF-CEM leukemia): 5990 nM | GI50 (RPMI-8226 leukemia): 456 nM | TGI (RPMI-8226 leukemia): 3130 nM | GI50 (TK-10 renal): 2830 nM | TGI (TK-10 renal): 12600 nM | GI50 (SN12C renal): 500 nM | TGI (SN12C renal): 2210 nM | GI50 (LOX IMVI melanoma): 397 nM | TGI (LOX IMVI melanoma): 1520 nM | GI50 (A498 renal): 1810 nM | TGI (A498 renal): 4980 nM | GI50 (BT-549 breast): 1700 nM | TGI (BT-549 breast): 3350 nM | GI50 (UO-31 renal): 1000 nM | TGI (UO-31 renal): 4030 nM | GI50 (786-0 renal): 754 nM | TGI (786-0 renal): 2350 nM | GI50 (OVCAR-5 ovarian): 496 nM | TGI (OVCAR-5 ovarian): 7270 nM | GI50 (SK-MEL-5 melanoma): 949 nM | TGI (SK-MEL-5 melanoma): 2160 nM | GI50 (A549 NSCLC): 399 nM | TGI (A549 NSCLC): 4810 nM | GI50 (OVCAR-8 ovarian): 607 nM | TGI (OVCAR-8 ovarian): 3870 nM | GI50 (K-562 leukemia): 342 nM | TGI (K-562 leukemia): 1700 nM | GI50 (MALME-3M melanoma): 869 nM | TGI (MALME-3M melanoma): 2410 nM | GI50 (U251 CNS): 382 nM | TGI (U251 CNS): 2170 nM | GI50 (NCI-H23 lung): 617 nM | TGI (NCI-H23 lung): 12000 nM | GI50 (HCT-15 colon): 340 nM | TGI (HCT-15 colon): 2140 nM | GI50 (KM12 colon): 416 nM | TGI (KM12 colon): 4010 nM | GI50 (HOP-92 NSCLC): 663 nM | TGI (HOP-92 NSCLC): 5510 nM | GI50 (DU-145 prostate): 468 nM | TGI (DU-145 prostate): 4240 nM | GI50 (HCC-2998 colon): 333 nM | TGI (HCC-2998 colon): 1160 nM | GI50 (COLO 205 colon): 298 nM | TGI (COLO 205 colon): 864 nM | GI50 (CAKI-1 renal): 536 nM | TGI (CAKI-1 renal): 2980 nM | GI50 (EKVX NSCLC): 1030 nM | TGI (EKVX NSCLC): 14700 nM | GI50 (HOP-62 NSCLC): 569 nM | TGI (HOP-62 NSCLC): 5660 nM | GI50 (ACHN renal): 744 nM | TGI (ACHN renal): 4460 nM | GI50 (MDA-MB-435): 242 nM | TGI (MDA-MB-435): 593 nM
